Three compounds from patent US5281605A, “Novel xanthine derivatives” (Sandoz Ltd., priority 1986, dated 1994) can be followed below.

One assay deals with Isolated human bronchus. The experiment in a line: Bronchospasmolytic activity in vitro: isolated human bronchus (A.1.2). The conditions noted are these: read-out: EC50, relaxation of human bronchus rings. As for the experimental part: (§1) The trachea is excised from freshly sacrificed guineα-pigs and transected in the transverse plane to give rings of tissue of ca. 2 mm. Individual rings are mounted vertically on stainless steel supports, one of which is fixed at the base of an organ bath, the other being attached to a tension transducer. The rings are bathed in modified Tyrode solution at 37° C. and gassed with O2 /CO2 (95:5, v/v). Rings prepared in this manner, preloaded with 1 g, generate spontaneous tone and, after a period of equilibration, relax on addition of spasmolytic drugs. Tension can be enhanced by addition of carbachol (10^-6 M) or histamine (10^-4 M). To ascertain spasmolytic activity, test substances are dissolved in physiological saline and added in increasing quantities to the organ bath at 5 min. intervals to provide a cumulative concentration-effect curve.
1.2. Isolated human bronchus:
Rings of bronchus (ca. 2 mm depth) are dissected from samples of human lung, resected from patients with lung carcinoma but grossly free of disease. Activity is determined employing the methodology of example A.1.1.

In assay [1] the test system is Isolated guineα-pig trachea. The experiment in a line: Bronchospasmolytic activity in vitro: isolated guinea-pig trachea (A.1.1). The conditions noted are these: Cavia porcellus. Here is the method:
1.1. Isolated guineα-pig trachea:
as §1

Assay [2] has as its system bombesin-induced bronchospasm. Description: Bronchodilator activity in vivo: inhibition of bombesin-induced bronchospasm (A.2.1). The settings on record: Cavia porcellus, iv; anaesthetised guinea pigs; i.v. at the height of bombesin-induced bronchospasm; read-out: ED50, reversal of bombesin-induced bronchospasm. Here is the method: 2.1. Inhibition of bronchospasm:
Guinea pigs are anaesthetised with pentobarbital (30 mg/kg i.p.) and phenobarbital (100 mg/kg i.p.) and ventilated via a tracheal cannula (10 ml/kg, 1 Hz). Ventilation is monitored either by a pressure transducer measuring air-flow (Konzett-Rossler method), or by a Fleisch flow transducer in line with the inspiratory circuit. When making measurements of flow, coincident pressure changes in the thorax are monitored directly via an intrathoracic trochar, permitting display of differential pressure relative to the trachea. From this information resistance and compliance are calculated at each inspiration.
Intravenous injection of bombesin (ca. […]) as a bolus, induces increased airways resistance Wilich is sustained over a period of several minutes. Capacity of test-substance to reverse response when administered i.v. at the height of bombesin-induced bronchospasm serves as a measure of efficacy in reversing established bronchospasm.

The nature of assay [3]: Level of activity of R- versus S-isomers in animal models. Format: in vivo. The conditions noted are these: R-isomers of examples 22 and 24 compared with S-isomers of examples 23 and 25 respectively.

One may read the EC50 as the concentration giving half of the maximal effect. As usually defined, the ED50 is the dose at which the effect has come halfway, by size or by number of responders.

Where two headings read alike, the source gives them in different places.

Take `COCCn1c(NC(CO)c2ccc(OC)c(OC)c2)nc2c1c(=O)n(C)c(=O)n2C` (stereo not shown) [Example 7]: the concentration for a half-maximal effect (EC50) with Isolated human bronchus is 1200 nM.

Consider `COCCn1c(N[C@@H](CO)c2ccc(OC)c(OC)c2)nc2c1c(=O)n(C)c(=O)n2C` [Example 22], for which the half-maximal effective concentration (EC50) came out at 860 nM in assay [1] (basal tone, read-out: EC50, relaxation of tracheal rings, basal tone); 19000 nM in assay [1] (in the presence of carbachol (10^-6 M), read-out: EC50, relaxation of tracheal rings, carbachol); 170 nM in assay [1] (in the presence of histamine (10^-4 M), read-out: EC50, relaxation of tracheal rings, histamine). The ED50 in assay [2] lay in the range of 0.03 to 0.09 mg/kg. Moreover, the “level of activity in animal models” value in assay [3] is “higher level of activity”.

With `COCCn1c(N[C@@H](COC)c2ccc(OC)c(OC)c2)nc2c1c(=O)n(C)c(=O)n2C` [Example 24], in assay [3], the “level of activity in animal models” value was “higher level of activity”.
